Test results from EP0048168A2, “7-Acylamino cephalosporin compounds, their preparation and pharmaceutical formulations containing them” (ELI LILLY AND COMPANY, priority 1980, dated 1982).
In brackets after ≈: the same amount, converted by molar mass. Where two headings read alike, the source gives them in different places.

Legend:
Assay in all cases: In vitro antibacterial activity, agar dilution technique using serial dilution
Assay type in all cases: cell-based
Streptococcus Group D = conditions: read-out: Minimum Inhibitory Concentration
Description: (§1) The antibacterial activity of the compounds of the invention is illustrated by the in vitro activity of a preferred compound, 7β-[α-methoxyimino-α-(2-amino-1,3-thiazol-4-yl)acetamido]-3-(1-cyanomethyl-1H-tetrazol-5-ylthiomethyl)-3-cephem-4-carboxylic acid, against a wide spectrum of microorganisms. The activity was determined by the agar dilution technique using serial dilution.

Serratia marcescens = system: Serratia marcescens
Description: as §1

Streptococcus Group A = Streptococcus Group A strain C203; read-out: Minimum Inhibitory Concentration
Description: as §1

Citrobacter freundii = Citrobacter freundii strain CF17; read-out: Minimum Inhibitory Concentration
Description: as §1

Enterobacter cloacae = system: Enterobacter cloacae
Description: as §1

Staphylococcus aureus = system: Staphylococcus aureus
Description: as §1

Klebsiella sp. = Klebsiella sp. strain KAE; read-out: Minimum Inhibitory Concentration
Description: as §1

Streptococcus pneumoniae = Streptococcus pneumoniae strain Park; read-out: Minimum Inhibitory Concentration
Description: as §1

Proteus inconstans = conditions: Providencia alcalifaciens; Proteus inconstans strain PR33; read-out: Minimum Inhibitory Concentration
Description: as §1

Escherichia coli = system: Escherichia coli
Description: as §1

[1] = system: Staphylococcus epidermidis
Description: as §1

Enterobacter aerogenes = conditions: Klebsiella aerogenes, read-out: Minimum Inhibitory Concentration
Description: as §1

Proteus rettgeri = conditions: Providencia rettgeri
Description: as §1

Shigella sonnei = Shigella sonnei strain N9; read-out: Minimum Inhibitory Concentration
Description: as §1

Salmonella sp. = system: Salmonella sp.
Description: as §1

Haemophilus influenzae = conditions: read-out: Minimum Inhibitory Concentration
Description: as §1

[2] = system: Bordetella bronchoseptica; conditions: Bordetella bronchoseptica strain 16; read-out: Minimum Inhibitory Concentration
Description: as §1

Pseudomonas aeruginosa = system: Pseudomonas aeruginosa
Description: as §1

Proteus morganii = conditions: Morganella morganii; Proteus morganii strain PR15; read-out: Minimum Inhibitory Concentration
Description: as §1

For `CO/N=C(\C(=O)N[C@@H]1C(=O)N2C(C(=O)O)=C(CSc3nnnn3CC#N)CS[C@H]12)c1csc(N)n1` [syn 7β-[α-Methoximino-α-(2-amino-1,3-thiazol-4-yl)-acetamido]-3-(1-cyanomethyl-1H-tetrazol-5-ylthiomethyl)-3-cephem-4-carboxylic acid], the MIC (Streptococcus Group D; Streptococcus Group D strain 9960) was 128 µg/mL (≈ 239 µM), the MIC (Streptococcus Group D; Streptococcus Group D strain X66) was greater than 128 µg/mL and the MIC (Serratia marcescens; Serratia marcescens strain 3E3, read-out: Minimum Inhibitory Concentration) was 0.25 µg/mL (≈ 0.466 µM). It also gave an MIC (Serratia marcescens; Serratia marcescens, read-out: Minimum Inhibitory Concentration, Serratia marcescens strain X93) of 0.125 µg/mL (≈ 0.233 µM), an MIC (Streptococcus Group A) of 0.015 µg/mL (≈ 0.028 µM) and an MIC (Citrobacter freundii) of 8 µg/mL (≈ 14.9 µM). The MIC (Enterobacter cloacae; Enterobacter cloacae strain 265A, read-out: Minimum Inhibitory Concentration) was 32 µg/mL (≈ 59.6 µM), the MIC (Enterobacter cloacae; Enterobacter cloacae strain EB5, read-out: Minimum Inhibitory Concentration) was 1 µg/mL (≈ 1.86 µM) and the MIC (Staphylococcus aureus; Staphylococcus aureus strain V41, read-out: Minimum Inhibitory Concentration) was 4 µg/mL (≈ 7.45 µM). For the same compound, the MIC (Staphylococcus aureus; Staphylococcus aureus strain X1.1, read-out: Minimum Inhibitory Concentration) was 1 µg/mL (≈ 1.86 µM), the MIC (Staphylococcus aureus; Staphylococcus aureus strain X400, read-out: Minimum Inhibitory Concentration) was 32 µg/mL (≈ 59.6 µM) and the MIC (Staphylococcus aureus; read-out: Minimum Inhibitory Concentration) was 8 µg/mL (≈ 14.9 µM). It also gave an MIC (Klebsiella sp.) of 2 µg/mL (≈ 3.73 µM), an MIC (Streptococcus pneumoniae) of 0.03 µg/mL (≈ 0.0559 µM) and an MIC (Proteus inconstans) of 0.125 µg/mL (≈ 0.233 µM). For the same compound, the MIC (Escherichia coli; Escherichia coli strain EC14, read-out: Minimum Inhibitory Concentration) was 0.06 µg/mL (≈ 0.112 µM), the MIC (Escherichia coli; Escherichia coli strain N10, read-out: Minimum Inhibitory Concentration) was 0.25 µg/mL (≈ 0.466 µM) and the MIC (Escherichia coli; Escherichia coli strain TEM, read-out: Minimum Inhibitory Concentration) was 0.06 µg/mL (≈ 0.112 µM). For the same compound, the MIC ([1]; Staphylococcus epidermidis strain EPI1, read-out: Minimum Inhibitory Concentration) was 4 µg/mL (≈ 7.45 µM), the MIC ([1]; Staphylococcus epidermidis strain EPI2, read-out: Minimum Inhibitory Concentration) was 8 µg/mL (≈ 14.9 µM) and the MIC (Enterobacter aerogenes; Enterobacter aerogenes strain EB17) was 0.25 µg/mL (≈ 0.466 µM). For the same compound, the MIC (Enterobacter aerogenes; Enterobacter aerogenes strain X68) was 0.06 µg/mL (≈ 0.112 µM), the MIC (Enterobacter aerogenes) was 0.125 µg/mL (≈ 0.233 µM) and the MIC (Proteus rettgeri; read-out: Minimum Inhibitory Concentration, Proteus rettgeri strain C24) was 0.125 µg/mL (≈ 0.233 µM). It also gave an MIC (Proteus rettgeri; Proteus rettgeri strain PR7, read-out: Minimum Inhibitory Concentration) of 0.06 µg/mL (≈ 0.112 µM), an MIC (Shigella sonnei) of 0.125 µg/mL (≈ 0.233 µM) and an MIC (Salmonella sp.; Salmonella sp. strain 1335, read-out: Minimum Inhibitory Concentration) of 0.5 µg/mL (≈ 0.932 µM). The MIC (Salmonella sp.; Salmonella sp. strain X514, read-out: Minimum Inhibitory Concentration) was 0.125 µg/mL (≈ 0.233 µM), the MIC (Haemophilus influenzae; Haemophilus influenzae strain 76, resistant strain of H. influenzae) was 0.015 µg/mL (≈ 0.028 µM) and the MIC (Haemophilus influenzae; Haemophilus influenzae strain C.L., sensitive strain of H. influenzae) was 0.03 µg/mL (≈ 0.0559 µM). For the same compound, the MIC [2] was 64 µg/mL (≈ 119 µM), the MIC (Pseudomonas aeruginosa; Pseudomonas aeruginosa strain Ps18, read-out: Minimum Inhibitory Concentration) was 32 µg/mL (≈ 59.6 µM) and the MIC (Pseudomonas aeruginosa; Pseudomonas aeruginosa strain X239, read-out: Minimum Inhibitory Concentration) was 16 µg/mL (≈ 29.8 µM). It also gave an MIC (Pseudomonas aeruginosa; Pseudomonas aeruginosa strain X528, read-out: Minimum Inhibitory Concentration) of 16 µg/mL (≈ 29.8 µM) and an MIC (Proteus morganii) of 0.06 µg/mL (≈ 0.112 µM).
